This note sets out measurements from patent US20220396565A1 (Hoffmann-La Roche Inc., priority 2020, published 2022).

The experiment has as its system Acinetobacter baumannii ATCC17961. Briefly: Antimicrobial susceptibility testing: 90% growth inhibitory concentration (IC90) determination, Iso-Sensitest broth. In kind it is cell-based. Particulars: Acinetobacter baumannii. How it is done: The in vitro antimicrobial activity of the compounds was determined according to the following procedure:
The assay used a 10-points Iso-Sensitest broth medium to measure quantitatively the in vitro activity of the compounds against Acinetobacter baumannii ATCC17978 or ATCC17961.
Stock compounds in DMSO were serially twofold diluted (e.g. range from 10 to 0.02 μM final concentration) in 384 wells microtiter plates and inoculated with 49 μl the bacterial suspension in Iso-Sensitest medium to have a final cell concentration of ˜5×10^(5) CFU/ml in a final volume/well of 50 ul/well. Microtiter plates were incubated at 35±2° C.
Bacterial cell growth was determined with the measurement of optical density at k=600 nm each 20 minutes over a time course of 16 h. Growth inhibition was calculated during the logarithmic growth of the bacterial cells with determination of the concentration inhibiting 50% (IC50) and 90% (IC90) of the growth.
Table 1 provides the 90% growth inhibitory concentrations (IC90) in micromoles per liter of the compounds of present invention obtained against the strain Acinetobacter baumannii ATCC17978 or ATCC17961.

The mark [1] stands for this setting: ATCC17961, 90% growth inhibitory concentration, Acinetobacter baumannii ATCC17961, Iso-Sensitest broth, read-out: ATCC 17961 IC90.
Setting [2] is: ATCC17961, read-out: ATCC 17961 IC90.

Where a name gives a salt, the structure may show the parent alone. Read-outs that look alike come from different tables or passages of the source.

In general, IC90 refers to the point of the concentration-response curve where the effect stands at 90%.

`COc1ccc(-c2cnc(C(=O)Nc3ccc(C(=O)N4CCN(C(=O)[C@H]5CCNC[C@H]5O)CC4)c(Cl)c3)n2C)c(F)c1F` [Example 229, N-[3-chloro-4-[4-[(3S,4S)-3-hydroxypiperidine-4-carbonyl]piperazine-1-carbonyl]phenyl]-5-(2,3-difluoro-4-methoxy-phenyl)-1-methyl-imidazole-2-carboxamide]: the IC90 under setting [1] was found to be 90 nM.

Consider `Cn1c(-c2ccc(OC(F)F)c(F)c2F)cnc1C(=O)Nc1ccc(C(=O)N2CCC(C(=O)NC[C@H]3CCNC3)CC2)c(Cl)c1` [Example 48, 1-[2-chloro-4-[[5-[4-(difluoromethoxy)-2,3-difluoro-phenyl]-1-methyl-imidazole-2-carbonyl]amino]benzoyl]-N-[[(3S)-pyrrolidin-3-yl]methyl]piperidine-4-carboxamide trifluoroacetate], for which the IC90 under setting [1] is 40 nM. For the molecule `COc1ccc(-c2cnc(C(=O)Nc3ccc(C(=O)N4CCC(CCN)CC4)c(Cl)c3)n2C)c(F)c1F` [Example 17, N-[4-[4-(2-Aminoethyl)piperidine-1-carbonyl]-3-chloro-phenyl]-5-(2,3-difluoro-4-methoxy-phenyl)-1-methyl-imidazole-2-carboxamide formate], under setting [2], the 90% effect concentration (IC90) stood at 30 nM. With `Cn1c(-c2ccc(OCF)c(F)c2F)cnc1C(=O)Nc1ccc(C(=O)N2CCN(C(=O)C3CCNCC3)CC2)c(Cl)c1` [Example 143, N-[3-chloro-4-[4-(piperidine-4-carbonyl)piperazine-1-carbonyl]phenyl]-5-[2,3-difluoro-4-(fluoromethoxy)phenyl]-1-methyl-imidazole-2-carboxamide formate], the IC90 under setting [1] amounted to 30 nM.

As to `COc1ccc(-c2cnc(C(=O)Nc3ccc(C(=O)N4CCN(C(=O)C5CCC(=O)N5)CC4)c(Cl)c3)n2C)c(F)c1F` (centres unmarked) [Example 126, N-[3-chloro-4-[4-(5-oxopyrrolidine-2-carbonyl)piperazine-1-carbonyl]phenyl]-5-(2,3-difluoro-4-methoxy-phenyl)-1-methyl-imidazole-2-carboxamide], under setting [1], the IC90 was 110 nM. As for `COc1ccc(-c2cnc(C(=O)Nc3ccc(C(=O)N4CC(NC(=O)CN)C4)c(Cl)c3)n2C)c(F)c1F` [Example 217, N-(4-(3-(2-aminoacetamido)azetidine-1-carbonyl)-3-chlorophenyl)-5-(2,3-difluoro-4-methoxyphenyl)-1-methyl-1H-imidazole-2-carboxamide formate], the 90% effect concentration (IC90) under setting [1] is 90 nM. For `Cn1c(-c2ccc(OCC#N)c(F)c2F)cnc1C(=O)Nc1ccc(C(=O)N2CCC(C(=O)N3CCN[C@H](CO)C3)CC2)c(Cl)c1` [Example 86, (S)-N-(3-ehloro-4-(4-(3-(hydroxymethyl)piperazine-1-carbonyl)piperidine-1-carbonyl)phenyl)-5-(4-(cyanomethoxy)-2,3-difluorophenyl)-1-methyl-1H-imidazole-2-carboxamide 2,2,2-trifluoroacetate], the concentration for an effect of 90% (IC90) under setting [2] stood at 100 nM.

Turning to `Cn1c(-c2ccc(OCC#N)c(F)c2F)cnc1C(=O)Nc1ccc(C(=O)N2CCN(C(=O)[C@@H]3NCC[C@@H]3O)CC2)c(Cl)c1` [Example 210, N-(3-chloro-4-(4-((2R,3S)-3-hydroxypyrrolidine-2-carbonyl)piperazine-1-carbonyl)phenyl)-5-(4-(cyanomethoxy)-2,3-difluorophenyl)-1-methyl-1H-imidazole-2-carboxamide formate], under setting [1], the IC90 amounted to 60 nM. As for `COc1ccc(-c2cnc(C(=O)Nc3ccc(C(=O)N4CCN(C(=O)[C@H]5CCNC[C@@H]5O)CC4)c(Cl)c3)n2C)c(F)c1F` [Example 231, N-[3-chloro-4-[4-[(3R,4S)-3-hydroxypiperidine-4-carbonyl]piperazine-1-carbonyl]phenyl]-5-(2,3-difluoro-4-methoxy-phenyl)-1-methyl-imidazole-2-carboxamide formate], the IC90 under setting [1] worked out at 160 nM.

In the case of `Cn1c(-c2ccc(OC(F)F)c(F)c2F)cnc1C(=O)Nc1ccc(C(=O)N2CCN(C(=O)C3CCNCC3)CC2)c(Cl)c1` [Example 249, N-[3-chloro-4-[4-(piperidine-4-carbonyl)piperazine-1-carbonyl]phenyl]-5-[4-(difluoromethoxy)-2,3-difluoro-phenyl]-1-methyl-imidazole-2-carboxamide formate], the IC90 under setting [1] turned out to be 30 nM. Still for that read-out and setting: the value for `Cn1c(-c2ccc(OCF)c(F)c2Cl)cnc1C(=O)Nc1ccc(C(=O)N2CCN(C(=O)C[C@@H]3CCNC3)CC2)c(Cl)c1` [Example 146, 5-[2-chloro-3-fluoro-4-(fluoromethoxy)phenyl]-N-[3-chloro-4-[4-[2-[(3S)-pyrrolidin-3-yl]acetyl]piperazine-1-carbonyl]phenyl]-1-methyl-imidazole-2-carboxamide formate] was 40 nM; that for `COc1ccc(-c2cnc(C(=O)Nc3ccc(C(=O)N4CCN(C(=O)CC5(O)CCNCC5)CC4)c(Cl)c3)n2C)c(Cl)c1F` [Example 182, 5-(2-chloro-3-fluoro-4-methoxy-phenyl)-N-[3-chloro-4-[4-[2-(4-hydroxy-4-piperidyl)acetyl]piperazine-1-carbonyl]phenyl]-1-methyl-imidazole-2-carboxamide formate] was 70 nM; that for `Cn1c(-c2ccc(OCF)c(F)c2F)cnc1C(=O)Nc1ccc(C(=O)N2CCN(C(=O)C[C@@H]3CCNC3)CC2)c(Cl)c1` [Example 158, N-[3-chloro-4-[4-[2-[(3S)-pyrrolidin-3-yl]acetyl]piperazine-1-carbonyl]phenyl]-5-[2,3-difluoro-4-(fluoromethoxy)phenyl]-1-methyl-imidazole-2-carboxamide formate] was 40 nM.

For the molecule `Cn1c(-c2ccc(OCC#N)c(F)c2Cl)cnc1C(=O)Nc1ccc(C(=O)N2CCN(C(=O)[C@H]3CCNC3)CC2)c(Cl)c1` [Example 253, 5-[2-chloro-4-(cyanomethoxy)-3-fluoro-phenyl]-N-[3-chloro-4-[4-[(3S)-pyrrolidine-3-carbonyl]piperazine-1-carbonyl]phenyl]-1-methyl-imidazole-2-carboxamide formate], the IC90 under setting [1] is 50 nM. Still for that read-out and setting: the value for `Cn1c(-c2ccc(OCC#N)c(F)c2Cl)cnc1C(=O)Nc1ccc(C(=O)N2CCN(C(=O)[C@@H]3CCNC3)CC2)c(Cl)c1` [Example 254, 5-[2-chloro-4-(cyanomethoxy)-3-fluoro-phenyl]-N-[3-chloro-4-[4-[(3R)-pyrrolidine-3-carbonyl]piperazine-1-carbonyl]phenyl]-1-methyl-imidazole-2-carboxamide formate] was 40 nM; that for `COc1ccc(-c2cnc(C(=O)Nc3ccc(C(=O)N4CCC(C(=O)N5CC(CCN)C5)CC4)c(Cl)c3)n2C)c(F)c1F` [Example 40, N-[4-[4-[3-(2-aminoethyl)azetidine-1-carbonyl]piperidine-1-carbonyl]-3-chloro-phenyl]-5-(2,3-difluoro-4-methoxy-phenyl)-1-methyl-imidazole-2-carboxamide formate] was 70 nM; that for `COc1ccc(-c2cnc(C(=O)Nc3ccc(C(=O)N4CCN(C(=O)CC5CNC(=O)C5)CC4)c(Cl)c3)n2C)c(F)c1F` (centres unmarked) [Example 129, N-[3-chloro-4-[4-[2-(5-oxopyrrolidin-3-yl)acetyl]piperazine-1-carbonyl]phenyl]-5-(2,3-difluoro-4-methoxy-phenyl)-1-methyl-imidazole-2-carboxamide] was 40 nM.
